Consider 6 compounds from patent US4871765A, “Amine derivative and its salt and anti-ulcer agent containing the same” (Toyama Chemical Co., Ltd., priority 1987, dated 1989).

A word on the LD50: it is the dose at which mortality reaches 50%. In general, inhibition refers to the drop in the measured response relative to a control, in per cent.

Series [1] in a line: Acute toxicity. Type of series: in vivo. Particulars: mouse, in vivo; ICR mice (male, 27-30 g), intravenous, up and down method. The procedure: (§1) A test compound was administered to ICR mice (male, 27-30 g) intravenously,and the LD50 value was calculated by the up and down method.
In series [2] the test system is gastric acid secretion. The series can be described thus: Inhibitory activity on gastric acid secretion (pylorus ligation method). It is filed as in vivo, Wistar rats (male). Particulars: intraduodenal, histamine 25 mg/kg s.c., 3 hours. The procedure: [I] Inhibitory activity on gastric acid secretion (pylorus ligation method)
This activity was measured in accordance with the method by H. Shay et al. described in Gastroenterology, 5, 43 (1945). Groups of six or seven Wistar rats (male, 190-230 g) were fasted for 24 hours, following which the pylorus of each rat was ligated under ether anesthesia. The test compounds were administered intraduodenally after ligation. Thereafter, the rats were subjected to celiorrhaphy and immediately 25 mg/kg of histamine was administered to them subcutaneously at the dorsal. After 3 hours, the cardia of stomach was ligated, and then the stomach was removed. The gastric juice was collected by centrifugation and the total amount was quantitated. 1 ml of the gastric juice was taken and titrated with a 0.1 N aqueous sodium hydroxide solution to an end point of pH 7.0. In administering the test compound, the compound was dissolved in dimethyl sulfoxide (DMSO) and then diluted with distilled water to obtain a 0.25% aqueous DMSO solution containing the test compound. A 0.25% aqueous DMSO solution containing no test compound was administered to control group.
The inhibition rate of gastric acid secretion was calculated from the following equation: [formula]

Series [3] deals with ICR mice. The series can be described thus: Acute toxicity. Particulars: ICR mice (male, 27-30 g), intravenous, up and down method. It is filed as in vivo. The procedure: as §1

`CN(C)Cc1ccc(CSCCNC(=NS(C)(=O)=O)NCC(O)c2ccc(O)cc2)o1` (stereo not shown) [Test compound 5, reference compound] yielded a 50% lethal dose (LD50) in series [1] of 90.7 mg/kg. Take `CNCc1ccc(CSCCNC(=NS(C)(=O)=O)NCC(O)c2ccc(O)cc2)o1` (stereo not shown) [compound 1]: the inhibition at 0.625 mg/kg in series [2] (Rattus norvegicus, dose 0.625 mg/kg, **p < 0.01, read-out: Inhibition rate) was found to be 67.6%. The inhibition at 1.25 mg/kg in series [2] (Rattus norvegicus, dose 1.25 mg/kg, **p < 0.01, *p < 0.05, read-out: Inhibition rate) worked out at 82.2%. The same compound had an LD50 in series [1] of 100 mg/kg.

In turn, “N-[2-(4-carbamoylphenyl)-2-hydroxyethyl]-N'-methanesulfonyl-N"-[2-[[5-(methylamino)methyl-2furyl]-methylthio]ethyl]guanidine [Test compound 2]” gave a median lethal dose (LD50) in series [3] of 129.8 mg/kg. With “N-[2-hydroxy-2-(4-hydroxyphenyl)ethyl]-N'-methanesulfonyl-N"-[2-[[5-(methylamino)methyl-2-furyl]methylthio]ethyl]guanidine [Example 1 (1)]”, the Inhibition rate stood at 51.3% in series [2] (dose 1.25 mg/kg, **p < 0.01, *p < 0.05, listed as 2); 54.2% in series [2] (dose 1.25 mg/kg, **p < 0.01, *p < 0.05, listed as 3); 30.6% in series [2] (dose 1.25 mg/kg, **p < 0.01, *p < 0.05, listed as 4).

In the case of “N-[2-hydroxy-2-[3-(methanesulfonylamino)phenyl]ethyl]-N'-methanesulfonyl-N"-[2-[[5-(methylamino)-methyl-2-furyl]methylthio]ethyl]guanidine [Test compound 3]”, the median lethal dose (LD50) in series [3] came out at 151.0 mg/kg. “S(-)-N-[2-hydroxy-2-(4-hydroxyphenyl)ethyl]-N'-methanesulfonyl-N"-[2-[[5-(methylamino)methyl-2-furyl]methylthio]ethyl]guanidine [Example 5]” registered an Inhibition rate in series [2] (dose 5.0 mg/kg) of 32.7%.
